Earlier results on two molecules are cited in patent publication US20210196661A1, “METHOD FOR AMELIORATION OF INSULIN RESISTANCE” (priority 2019, published 2021).

The subject of series [1] is integrated stress response (ISR). As to conditions: mice.
For series [2] the following is noted: in vivo.

As for `O=C(COc1ccc(Cl)cc1)NC1CCC(NC(=O)COc2ccc(Cl)cc2)CC1` (stereo not shown) [ISM], in series [1], the age-related memory impairment result is “rapidly reverses”, the “levels of ATF4” value is reported as “decreases” and the “levels of phosphorylated eIF2a” value is “decreases”.
As for `N[C@@H](Cc1cc(I)c(Oc2cc(I)c(O)c(I)c2)c(I)c1)C(=O)O` [T4, L-thyroxine], in series [2], the half life is 120 to 170 h.
